Measured values from ChEMBL document CHEMBL1201862, “PubChem BioAssay data set” (2004).
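1) Cells in 96-well plates. 2) Compound, 48 h, 5 concentrations. 3) Linear interpolation between surrounding doses. 4) Unreached endpoint = highest concentration. At the GI50, growth is halved.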 Activity calls are given as the source filed them. Cut-off read from the data, not from the text of the source: active = GI50 up to about 1.1 µM and inactive = higher.

Tests used:
Test in all cases: NCI-60 cell line screen, 48 h
T47D = system: T47D
OVCAR-3 = system: OVCAR-3
Malme-3M = system: Malme-3M
HOP-92 = system: HOP-92
MOLT-4 = system: MOLT-4
MCF7 = system: MCF7
SF-295 = system: SF-295
MDA-MB-231 = system: MDA-MB-231
BT-549 = system: BT-549
SK-MEL-28 = system: SK-MEL-28
OVCAR-5 = system: OVCAR-5
Hs-578T = system: Hs-578T
A549 = system: A549
M14 = system: M14
K562 = system: K562
RXF 393 = system: RXF 393
NCI/ADR-RES = system: NCI/ADR-RES
OVCAR-8 = system: OVCAR-8
HCT-116 = system: HCT-116
SR = system: SR
HOP-62 = system: HOP-62
IGROV-1 = system: IGROV-1
UACC-257 = system: UACC-257
UACC-62 = system: UACC-62
PC-3 = system: PC-3
NCI-H460 = system: NCI-H460
NCI-H23 = system: NCI-H23
HT-29 = system: HT-29
COLO 205 = system: COLO 205
CCRF-CEM = system: CCRF-CEM
UO-31 = system: UO-31
SF-268 = system: SF-268
SN12C = system: SN12C
786-0 = system: 786-0
MDA-MB-435 = system: MDA-MB-435
SK-MEL-2 = system: SK-MEL-2
U-251 = system: U-251
DU-145 = system: DU-145
SF-539 = system: SF-539
HL-60 = system: HL-60
SNB-75 = system: SNB-75
OVCAR-4 = system: OVCAR-4
SK-MEL-5 = system: SK-MEL-5
LOX IMVI = system: LOX IMVI
KM12 = system: KM12
RPMI-8226 = system: RPMI-8226
A498 = system: A498
MDA-N = system: MDA-N
SW-620 = system: SW-620
NCI-H226 = system: NCI-H226
SK-OV-3 = system: SK-OV-3
SNB-19 = system: SNB-19
ACHN = system: ACHN
HCT-15 = system: HCT-15
CAKI-1 = system: CAKI-1
NCI-H522 = system: NCI-H522
HCC 2998 = system: HCC 2998
TK-10 = system: TK-10
EKVX = system: EKVX

SMILES: O=P1(C(O)/C=C/c2ccccc2)N(Cc2ccccc2)[C@H](c2ccccc2)[C@@H](c2ccccc2)N1Cc1ccccc1 (stereo partly specified)
- GI50 (T47D): 7.13 µM (inactive)
- GI50 (OVCAR-3): 16.9 µM (inactive)
- GI50 (Malme-3M): 27.8 µM (inactive)
- GI50 (HOP-92): 11 µM (inactive)
- GI50 (MOLT-4): 2.61 µM (inactive)
- GI50 (MCF7): 12 µM (inactive)
- GI50 (SF-295): 14 µM (inactive)
- GI50 (MDA-MB-231): 17.3 µM (inactive)
- GI50 (BT-549): 28.6 µM (inactive)
- GI50 (SK-MEL-28): 35.2 µM (inactive)
- GI50 (OVCAR-5): 21.8 µM (inactive)
- GI50 (Hs-578T): 26.2 µM (inactive)
- GI50 (A549): 6.92 µM (inactive)
- GI50 (M14): 14.4 µM (inactive)
- GI50 (K562): 7.85 µM (inactive)
- GI50 (RXF 393): 21.3 µM (inactive)
- GI50 (NCI/ADR-RES): 26 µM (inactive)
- GI50 (OVCAR-8): 10.2 µM (inactive)
- GI50 (HCT-116): 8.15 µM (inactive)
- GI50 (SR): 4.75 µM (inactive)
- GI50 (HOP-62): 29.8 µM (inactive)
- GI50 (IGROV-1): 2.24 µM (inactive)
- GI50 (UACC-257): 8.97 µM (inactive)
- GI50 (UACC-62): 11 µM (inactive)
- GI50 (PC-3): 7.55 µM (inactive)
- GI50 (NCI-H460): 15 µM (inactive)
- GI50 (NCI-H23): 13.1 µM (inactive)
- GI50 (HT-29): 14.2 µM (inactive)
- GI50 (COLO 205): 11.9 µM (inactive)
- GI50 (CCRF-CEM): 10.5 µM (inactive)
- GI50 (UO-31): 12.5 µM (inactive)
- GI50 (SF-268): 23.8 µM (inactive)
- GI50 (SN12C): 13.6 µM (inactive)
- GI50 (786-0): 23.7 µM (inactive)
- GI50 (MDA-MB-435): 19.3 µM (inactive)
- GI50 (SK-MEL-2): 14.1 µM (inactive)
- GI50 (U-251): 19.9 µM (inactive)
- GI50 (DU-145): 38.5 µM (inactive)
- GI50 (SF-539): > 51.3 µM (inactive)
- GI50 (HL-60): 6.87 µM (inactive)
- GI50 (SNB-75): 19 µM (inactive)
- GI50 (OVCAR-4): 13 µM (inactive)
- GI50 (SK-MEL-5): 14.7 µM (inactive)
- GI50 (LOX IMVI): 17.5 µM (inactive)
- GI50 (KM12): 17 µM (inactive)
- GI50 (RPMI-8226): 3.63 µM (inactive)
- GI50 (A498): 37.7 µM (inactive)
- GI50 (MDA-N): 16.5 µM (inactive)
- GI50 (SW-620): 26.1 µM (inactive)
- GI50 (NCI-H226): 36.6 µM (inactive)
- GI50 (SK-OV-3): 22.5 µM (inactive)
- GI50 (SNB-19): 24.3 µM (inactive)
- GI50 (ACHN): 27.4 µM (inactive)
- GI50 (HCT-15): 32.1 µM
- GI50 (CAKI-1): 17.1 µM (inactive)
- GI50 (NCI-H522): 4.9 µM (inactive)
- GI50 (HCC 2998): 19.6 µM (inactive)
- GI50 (TK-10): 26 µM (inactive)
- GI50 (EKVX): 11.7 µM (inactive)

SMILES: COc1cc(S(=O)(=O)Nc2ccc(-c3csc(/N=C\c4ccccc4O)n3)cc2)ccc1Cl
- GI50 (T47D): 16.9 µM (inactive)
- GI50 (OVCAR-3): 28.5 µM (inactive)
- GI50 (Malme-3M): 39.3 µM (inactive)
- GI50 (HOP-92): > 100 µM (inactive)
- GI50 (MOLT-4): 15.8 µM (inactive)
- GI50 (MCF7): 22.6 µM (inactive)
- GI50 (SF-295): 31.5 µM (inactive)
- GI50 (MDA-MB-231): 53.6 µM (inactive)
- GI50 (BT-549): 43.7 µM (inactive)
- GI50 (SK-MEL-28): 39.3 µM (inactive)
- GI50 (OVCAR-5): > 100 µM (inactive)
- GI50 (Hs-578T): > 100 µM (inactive)
- GI50 (A549): 63.1 µM (inactive)
- GI50 (M14): 59 µM (inactive)
- GI50 (K562): 28.2 µM (inactive)
- GI50 (RXF 393): 35.6 µM (inactive)
- GI50 (NCI/ADR-RES): > 100 µM (inactive)
- GI50 (OVCAR-8): > 100 µM (inactive)
- GI50 (HCT-116): 43.1 µM (inactive)
- GI50 (SR): 31.6 µM (inactive)
- GI50 (HOP-62): 65.3 µM (inactive)
- GI50 (IGROV-1): 56 µM (inactive)
- GI50 (UACC-62): 31.6 µM (inactive)
- GI50 (PC-3): 39.4 µM (inactive)
- GI50 (NCI-H23): 52.7 µM (inactive)
- GI50 (HT-29): > 100 µM (inactive)
- GI50 (COLO 205): 41.2 µM (inactive)
- GI50 (CCRF-CEM): 22.3 µM (inactive)
- GI50 (UO-31): 31 µM (inactive)
- GI50 (SF-268): 42 µM (inactive)
- GI50 (SN12C): 65.2 µM (inactive)
- GI50 (786-0): > 100 µM (inactive)
- GI50 (MDA-MB-435): 36.1 µM (inactive)
- GI50 (SK-MEL-2): 29.2 µM (inactive)
- GI50 (DU-145): 45.9 µM (inactive)
- GI50 (SF-539): 55.7 µM (inactive)
- GI50 (HL-60): 24.4 µM (inactive)
- GI50 (SNB-75): 55.2 µM (inactive)
- GI50 (OVCAR-4): 44.9 µM (inactive)
- GI50 (SK-MEL-5): 70.5 µM (inactive)
- GI50 (LOX IMVI): 35.5 µM (inactive)
- GI50 (KM12): 38.1 µM (inactive)
- GI50 (RPMI-8226): 29.6 µM (inactive)
- GI50 (A498): > 100 µM (inactive)
- GI50 (MDA-N): 33.9 µM (inactive)
- GI50 (SW-620): 37.8 µM (inactive)
- GI50 (NCI-H226): > 100 µM (inactive)
- GI50 (SK-OV-3): > 100 µM (inactive)
- GI50 (SNB-19): 39.3 µM (inactive)
- GI50 (ACHN): 62.2 µM (inactive)
- GI50 (HCT-15): 51.4 µM
- GI50 (CAKI-1): > 100 µM (inactive)
- GI50 (NCI-H522): 37.8 µM (inactive)
- GI50 (EKVX): 29.8 µM (inactive)

SMILES: C/N=c1\sc2c(n1C)C(=O)c1ccccc1C2=O
- GI50 (T47D): 3.78 µM (inactive)
- GI50 (OVCAR-3): 3.44 µM (inactive)
- GI50 (Malme-3M): 0.331 µM (active)
- GI50 (HOP-92): 10.3 µM (inactive)
- GI50 (MOLT-4): 5.15 µM (inactive)
- GI50 (MCF7): 1.65 µM (inactive)
- GI50 (SF-295): 1.54 µM (inactive)
- GI50 (MDA-MB-231): 12.2 µM (inactive)
- GI50 (BT-549): 1.76 µM (inactive)
- GI50 (SK-MEL-28): 1.96 µM (inactive)
- GI50 (OVCAR-5): 3.99 µM (inactive)
- GI50 (Hs-578T): 2.39 µM (inactive)
- GI50 (A549): 1.93 µM (inactive)
- GI50 (M14): 1.5 µM (inactive)
- GI50 (K562): 3.37 µM (inactive)
- GI50 (RXF 393): 3.08 µM (inactive)
- GI50 (NCI/ADR-RES): 3.95 µM (inactive)
- GI50 (OVCAR-8): 3.2 µM (inactive)
- GI50 (HCT-116): 2.85 µM (inactive)
- GI50 (SR): 3.75 µM (inactive)
- GI50 (HOP-62): 1.76 µM (inactive)
- GI50 (IGROV-1): 6.78 µM (inactive)
- GI50 (UACC-257): 1.53 µM (inactive)
- GI50 (UACC-62): 2.11 µM (inactive)
- GI50 (PC-3): 3.96 µM (inactive)
- GI50 (NCI-H460): 2.62 µM (inactive)
- GI50 (NCI-H23): 0.566 µM (active)
- GI50 (HT-29): 3.04 µM (inactive)
- GI50 (COLO 205): 5.3 µM (inactive)
- GI50 (CCRF-CEM): 4.15 µM (inactive)
- GI50 (UO-31): 7.45 µM (inactive)
- GI50 (SF-268): 3.85 µM (inactive)
- GI50 (SN12C): 1.64 µM (inactive)
- GI50 (786-0): 6.79 µM (inactive)
- GI50 (MDA-MB-435): 0.192 µM (active)
- GI50 (SK-MEL-2): 2.08 µM (inactive)
- GI50 (U-251): 2.55 µM (inactive)
- GI50 (DU-145): 1.66 µM (inactive)
- GI50 (SF-539): 2.01 µM (inactive)
- GI50 (SNB-75): 2.06 µM (inactive)
- GI50 (OVCAR-4): 5.43 µM (inactive)
- GI50 (SK-MEL-5): 1.27 µM (inactive)
- GI50 (LOX IMVI): 1.27 µM (inactive)
- GI50 (KM12): 3.37 µM (inactive)
- GI50 (RPMI-8226): 4.14 µM (inactive)
- GI50 (A498): 15.7 µM (inactive)
- GI50 (MDA-N): 0.222 µM (active)
- GI50 (SW-620): 2.09 µM (inactive)
- GI50 (NCI-H226): 2.34 µM (inactive)
- GI50 (SK-OV-3): 31.2 µM (inactive)
- GI50 (SNB-19): 3.4 µM (inactive)
- GI50 (ACHN): 5.81 µM (inactive)
- GI50 (HCT-15): 2.03 µM
- GI50 (CAKI-1): 8.41 µM (inactive)
- GI50 (NCI-H522): 9.31 µM (inactive)
- GI50 (HCC 2998): 7.73 µM (inactive)
- GI50 (TK-10): 14.6 µM (inactive)
- GI50 (EKVX): 10.7 µM (inactive)
